Assay results from patent US10131652B2, “Pyrimidinyloxy benzene derivatives as herbicides” (E. I. DU PONT DE NEMOURS AND COMPANY, priority 2014, dated 2018).

Columns and labels:
Type in all cases: in vivo
[1] = test system: giant foxtail (Setaria faberii); assay: Test B pre-/postemergence plant response
Excerpt: (§1) Seeds of plant species selected from bamyardgrass (Echinochloa crus-galli), kochia (Kochia scoparia), ragweed (common ragweed, Ambrosia elatior), Italian ryegrass (Lolium multiflorum), large (Lg) crabgrass (Digitaria sanguinalis), giant foxtail (Setaria faberii), momingglory (Ipomoea spp.), pigweed (Amaranthus retroflexus), velvetleaf (Abutilon theophrasti), wheat (Triticum aestivum), and corn (Zea mays) were planted into a blend of loam soil and sand and treated preemergence with a directed soil spray using test chemicals formulated in a non-phytotoxic solvent mixture which included a surfactant. At the same time, plants selected from these crop and weed species and also blackgrass (Alopecurus myosuroides), and galium (catchweed bedstraw, Galium aparine) were planted in pots containing the same blend of loam soil and sand and treated with postemergence applications of test chemicals formulated in the same manner. Plants ranged in height from 2 to 10 cm and were in the one- to two-leaf stage for the postemergence treatment. Treated plants and untreated controls were maintained in a greenhouse for approximately 10 days, after which time all treated plants were compared to untreated controls and visually evaluated for injury. Plant response ratings, summarized in Table B, are based on a 0 to 100 scale where 0 is no effect and 100 is complete control. A dash (-) response means no test result.

corn (Zea mays) = assay: Test B pre-/postemergence plant response; settings: 0 to 100 scale, 0 no effect, 100 complete control
Excerpt: as §1

[2] = test system: Italian ryegrass (Lolium multiflorum); assay: Test B pre-/postemergence plant response
Excerpt: as §1

kochia (Kochia scoparia) = assay: Test B pre-/postemergence plant response
Excerpt: as §1

[3] = test system: barnyardgrass (Echinochloa crus-galli); assay: Test B pre-/postemergence plant response
Excerpt: as §1

[4] = test system: wheat (Triticum aestivum); assay: Test B pre-/postemergence plant response; settings: 0 to 100 scale, 0 no effect, 100 complete control
Excerpt: as §1

[5] = test system: pigweed (Amaranthus retroflexus); assay: Test B pre-/postemergence plant response
Excerpt: as §1

[6] = test system: ragweed (common ragweed, Ambrosia elatior); assay: Test B pre-/postemergence plant response
Excerpt: as §1

[7] = test system: ducksalad (Heteranthera limosa); assay: Test C flooded paddy test plant response; settings: Flood, 250 g ai/ha; scale of 0 to 100 where 0 is no effect and 100 is complete control; 13 to 15 days
Outline: (§2)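 Two-leaf stage → flood to 3 cm → compound into water → hold depth, greenhouse 13–15 d → visual score vs controls (0 none, 100 complete control).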

[8] = test system: small-flower umbrella sedge (Cyperus difformis); assay: Test C flooded paddy test plant response; settings: Flood, 250 g ai/ha; scale of 0 to 100 where 0 is no effect and 100 is complete control; 13 to 15 days
Outline: as §2

rice (Oryza sativa) = assay: Test C flooded paddy test plant response; settings: Flood, 250 g ai/ha; scale of 0 to 100 where 0 is no effect and 100 is complete control; 13 to 15 days
Outline: as §2

[9] = test system: barnyardgrass (Echinochloa crus-galli); assay: Test C flooded paddy test plant response; settings: Flood, 250 g ai/ha; scale of 0 to 100 where 0 is no effect and 100 is complete control; 13 to 15 days
Outline: as §2

[10] = test system: blackgrass (Alopecurus myosuroides); assay: Test B postemergence plant response; settings: 0 to 100 scale, 0 no effect, 100 complete control
Outline: (§3)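 Weeds grown in loam soil/sand pots were sprayed postemergence at 2 to 10 cm height, one- to two-leaf stage. After approximately 10 days in greenhouse, injury was rated visually against untreated controls on a 0 (no effect) to 100 (complete control) scale; dash means no test result.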

[11] = test system: galium (catchweed bedstraw, Galium aparine); assay: Test B postemergence plant response; settings: 0 to 100 scale, 0 no effect, 100 complete control
Outline: as §3

[12] = 31 g ai/ha, Postemergence, 0 to 100 scale, 0 no effect, 100 complete control
[13] = 31 g ai/ha, Preemergence, 0 to 100 scale where 0 is no effect and 100 is complete control
[14] = 125 g ai/ha, postemergence, 0 to 100 scale, 0 no effect, 100 complete control
[15] = Preemergence, 125 g ai/ha, 0 to 100 scale where 0 is no effect and 100 is complete control

| Structure (SMILES) | Plant response rating, Foxtail, Giant [1, 12] | Plant response rating, Foxtail, Giant [1, 13] | Plant response rating, Foxtail, Giant [1, 14] | Plant response rating, Foxtail, Giant [1, 15] | Plant response rating, Corn (corn (Zea mays); 31 g ai/ha, Postemergence) | Plant response rating, Corn (corn (Zea mays); 125 g ai/ha, postemergence) | Plant response rating, Ryegrass, Italian [2, 12] | Plant response rating, Ryegrass, Italian [2, 13] | Plant response rating, Ryegrass, Italian [2, 14] | Plant response rating, Kochia (kochia (Kochia scoparia); [12]) | Plant response rating, Kochia (kochia (Kochia scoparia); [13]) | Plant response rating, Kochia (kochia (Kochia scoparia); [14]) | Plant response rating, Kochia (kochia (Kochia scoparia); [15]) | Plant response rating, Barnyardgrass [3, 12] | Plant response rating, Barnyardgrass [3, 13] | Plant response rating, Barnyardgrass [3, 14] | Plant response rating, Barnyardgrass [3, 15] | Plant response rating, Wheat ([4]; 31 g ai/ha, Postemergence) | Plant response rating, Wheat ([4]; 125 g ai/ha, postemergence) | Plant response rating, Pigweed [5, 12] | other results |
| --- | --- | --- | --- | --- | --- | --- | --- | --- | --- | --- | --- | --- | --- | --- | --- | --- | --- | --- | --- | --- | --- |
| N#Cc1cccc(Oc2ncc(Cl)cn2)c1-c1ccsc1 [Compound 112] | 10 | 10 | 60 | 70 | 10 | 20 | 0 | 0 | 0 | 60 | 0 | 70 | 50 | 10 | 10 | 30 | 30 | 0 | 0 | 30 | Plant response rating, Pigweed [5, 13]: 30; Plant response rating, Pigweed [5, 14]: 30; Plant response rating, Ragweed [6, 12]: 20; Plant response rating, Ragweed [6, 13]: 0; Plant response rating, Ragweed [6, 14]: 30; Ducksalad plant response rating [7]: 30; Sedge, Umbrella plant response rating [8]: 95; Rice plant response rating (rice (Oryza sativa)): 0; Barnyardgrass plant response rating [9]: 0; Plant response rating, Blackgrass ([10]; 31 g ai/ha, Postemergence): 0; Plant response rating, Blackgrass ([10]; 125 g ai/ha, postemergence): 20; Plant response rating, Galium ([11]; 31 g ai/ha, Postemergence): 30; Plant response rating, Galium ([11]; 125 g ai/ha, postemergence): 50 |
| Fc1ccc(Oc2ncc(Cl)cn2)c(-c2cc(C(F)F)on2)c1Br [Compound 114] | 20 | 10 | 60 | 30 | 30 | 50 | 10 | 0 | 60 | 70 | 20 | 90 | 20 | 10 | 0 | 20 | 20 | 10 | 20 | 100 | Plant response rating, Pigweed [5, 13]: 70; Plant response rating, Pigweed [5, 14]: 100; Plant response rating, Ragweed [6, 12]: 0; Plant response rating, Ragweed [6, 13]: 0; Plant response rating, Ragweed [6, 14]: 20; Ducksalad plant response rating [7]: 75; Sedge, Umbrella plant response rating [8]: 75; Rice plant response rating (rice (Oryza sativa)): 15; Barnyardgrass plant response rating [9]: 0; Plant response rating, Blackgrass ([10]; 31 g ai/ha, Postemergence): 10; Plant response rating, Blackgrass ([10]; 125 g ai/ha, postemergence): 40; Plant response rating, Galium ([11]; 31 g ai/ha, Postemergence): 70; Plant response rating, Galium ([11]; 125 g ai/ha, postemergence): 100 |
| Cn1cnc(-c2ccccc2Oc2ncc(Cl)cn2)n1 [Compound 115] | 0 | 0 | 0 | 0 | 0 | 0 | 0 | 0 | 0 | 0 | 0 | 0 | 0 | 0 | 0 | 0 | 0 | 0 | 0 | 0 | Plant response rating, Pigweed [5, 13]: 0; Plant response rating, Pigweed [5, 14]: 0; Plant response rating, Ragweed [6, 12]: 0; Plant response rating, Ragweed [6, 13]: 0; Plant response rating, Ragweed [6, 14]: 0; Ducksalad plant response rating [7]: 0; Sedge, Umbrella plant response rating [8]: 0; Rice plant response rating (rice (Oryza sativa)): 0; Barnyardgrass plant response rating [9]: 0; Plant response rating, Blackgrass ([10]; 31 g ai/ha, Postemergence): 0; Plant response rating, Blackgrass ([10]; 125 g ai/ha, postemergence): 0; Plant response rating, Galium ([11]; 31 g ai/ha, Postemergence): 0; Plant response rating, Galium ([11]; 125 g ai/ha, postemergence): 0 |
| Cn1ncnc1-c1ccccc1Oc1ncc(Cl)cn1 [Compound 117] | 0 | 0 | 0 | 0 | 0 | 0 | 0 | 0 | 0 | 0 | 0 | 0 | 0 | 0 | 0 | 0 | 0 | 0 | 0 | 0 | Plant response rating, Pigweed [5, 13]: 0; Plant response rating, Pigweed [5, 14]: 0; Plant response rating, Ragweed [6, 12]: 0; Plant response rating, Ragweed [6, 13]: 0; Plant response rating, Ragweed [6, 14]: 0; Ducksalad plant response rating [7]: 0; Sedge, Umbrella plant response rating [8]: 0; Rice plant response rating (rice (Oryza sativa)): 0; Barnyardgrass plant response rating [9]: 0; Plant response rating, Blackgrass ([10]; 31 g ai/ha, Postemergence): 0; Plant response rating, Blackgrass ([10]; 125 g ai/ha, postemergence): 0; Plant response rating, Galium ([11]; 31 g ai/ha, Postemergence): 0; Plant response rating, Galium ([11]; 125 g ai/ha, postemergence): 0 |
| Brc1cnc(Oc2ccccc2-c2cc(Br)no2)nc1 [Compound 119] | 0 | 0 | 10 | 50 | 0 | 0 | 0 | 0 | 0 | 0 | 0 | 30 | 10 | 0 | 0 | 0 | 0 | 0 | 0 | 40 | Plant response rating, Pigweed [5, 13]: 0; Plant response rating, Pigweed [5, 14]: 80; Plant response rating, Ragweed [6, 12]: 10; Plant response rating, Ragweed [6, 13]: 0; Plant response rating, Ragweed [6, 14]: 10; Ducksalad plant response rating [7]: 40; Sedge, Umbrella plant response rating [8]: 40; Rice plant response rating (rice (Oryza sativa)): 0; Barnyardgrass plant response rating [9]: 0; Plant response rating, Blackgrass ([10]; 31 g ai/ha, Postemergence): 0; Plant response rating, Blackgrass ([10]; 125 g ai/ha, postemergence): 0; Plant response rating, Galium ([11]; 31 g ai/ha, Postemergence): 30; Plant response rating, Galium ([11]; 125 g ai/ha, postemergence): 60 |
